What follows are compounds tested against T1, human KV 1.5 (IKur) (Homo sapiens, UniProt P22460) (assay: block of IKur current in patch clamped L-929 cells expressing human Kv1.5). Conditions: 0.3 μM; patch clamped mammalian L-929 cells stably expressing human Kv1.5.
T1 construct: expressed in transfected cells
Type: cell-based
From the text: Assays to determine the degree of activity of a compound as an IKur inhibitor are well known in the art and are described in references such as J. Gen. Physiol., 101(4):513-543 (April 1993), and Br. J. Pharmacol., 115(2):267-274 (May 1995).
Synders, D. J. et al., “A rapidly activating and slowly inactivating potassium channel cloned from human heart: functional analysis after stable mammalian cell culture expression”, J. Gen. Physiol., 101:513-543 (1993). • 2. Zhou, Z. et al., “Block of HERG potassium channels by the antihistamine astemizole and its metabolites desmethylastemizole and norastemizole”, J. Cardiovasc. Electrophysiol., 10(6):836-843 (1999).

T1 sequence (P22460 whole entry): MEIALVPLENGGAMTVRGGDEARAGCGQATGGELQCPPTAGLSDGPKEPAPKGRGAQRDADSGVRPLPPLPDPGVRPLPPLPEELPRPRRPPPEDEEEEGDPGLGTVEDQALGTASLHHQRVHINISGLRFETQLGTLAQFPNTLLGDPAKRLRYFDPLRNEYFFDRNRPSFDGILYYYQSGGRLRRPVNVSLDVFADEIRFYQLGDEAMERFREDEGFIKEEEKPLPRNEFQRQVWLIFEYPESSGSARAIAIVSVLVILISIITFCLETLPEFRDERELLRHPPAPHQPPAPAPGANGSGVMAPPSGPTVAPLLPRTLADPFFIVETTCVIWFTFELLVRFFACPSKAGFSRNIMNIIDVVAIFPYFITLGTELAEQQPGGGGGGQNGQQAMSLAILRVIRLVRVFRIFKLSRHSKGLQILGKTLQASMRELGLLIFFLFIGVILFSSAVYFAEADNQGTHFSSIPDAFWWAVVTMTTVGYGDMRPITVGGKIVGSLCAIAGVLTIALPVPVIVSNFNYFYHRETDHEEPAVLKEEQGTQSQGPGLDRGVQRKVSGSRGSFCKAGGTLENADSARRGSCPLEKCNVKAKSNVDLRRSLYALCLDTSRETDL

| SMILES | KV1_5% Inh L929 @0.3 μM |
| --- | --- |
| CC(Nc1nc(-c2cncc(S(N)(=O)=O)c2)nn2ccc(-c3ccccc3)c12)c1ccc(F)cc1 (stereo not drawn) [Example 77, 5-(4-(1-(4-fluorophenyl)ethylamino)-5-phenylpyrrolo[1,2-f] [1,2,4]triazin-2-yl)pyridine-3-sulfonamide] | 95.70% |

Same assay, conditions: L929, 0.3 μM; patch clamped mammalian L-929 cells stably expressing human Kv1.5; read-out: KV1_5% Inh L929 @0.3 μM

| SMILES | inhibition at 0.3 µM |
| --- | --- |
| O=S(=O)(CC(F)(F)F)Nc1cncc(-c2nc(NCc3ccccn3)c3c(-c4ccccc4)ccn3n2)c1 [Example 61, 2,2,2-trifluoro-N-(5-(5-phenyl-4-(pyridin-2-ylmethylamino)pyrrolo [1,2-f][1,2,4]triazin-2-yl)pyridin-3-yl)ethanesulfonamide] | 90% |
| O=S(=O)(CCCCl)Nc1cncc(-c2nc(NCc3ccccn3)c3c(-c4ccccc4)ccn3n2)c1 [Example 63, 3-chloro-N-(5-(5-phenyl-4-(pyridin-2-ylmethylamino)pyrrolo[1,2-f][1,2,4]triazin-2-yl)pyridin-3-yl)propane-1-sulfonamide] | 97.8% |
| Nc1cncc(-c2nc(NCc3ccccn3)c3c(-c4cncc(N)c4)ccn3n2)c1 [Example 68, 5,5′-(4-(pyridin-2-ylmethylamino)pyrrolo [1,2-f][1,2,4]triazine-2-,5-diyl)dipyridin-3-amine] | 28.1% |
| N#Cc1cccc(-c2ccn3nc(-c4cncc(N)c4)nc(NCc4ccccn4)c23)c1 [Example 69, 3-(2-(5-aminopyridin-3-yl)-4-(pyridin-2-ylmethylamino)pyrrolo [1,2-f][1,2,4]triazin-5-yl)benzonitrile] | 80.3% |
| COc1ccc(-c2ccn3nc(-c4cncc(N)c4)nc(NCc4ccccn4)c23)cn1 [Example 70, 2-(5-aminopyridin-3-yl)-5-(6-methoxypyridin-3-yl)-N-(pyridin-2-ylmethyl) pyrrolo[1,2-f][1,2,4] triazin-4-amine] | 85.4% |
| Nc1cncc(-c2nc(NCC3CCCCC3)c3c(-c4ccccc4)ccn3n2)c1 [Example 73, 2-(5-aminopyridin-3-yl)-N-(cyclohexylmethyl)-5-phenylpyrrolo[1,2-f] [1,2,4] triazin-4-amine] | 88.3% |
| CS(=O)(=O)Nc1cncc(-c2nc(NCc3ccccc3)c3c(-c4ccccc4)ccn3n2)c1 [Example 74, N-(5-(4-(benzylamino)-5-phenylpyrrolo [1,2-f][1,2,4]triazin-2-yl)pyridin-3-yl) methanesulfonamide] | 96.7% |
| CS(=O)(=O)Nc1cncc(-c2nc(NCC3CCCCC3)c3c(-c4ccccc4)ccn3n2)c1 [Example 75, N-(5-(4-(cyclohexylmethylamino)-5-phenylpyrrolo[1,2-f] [1,2,4]triazin-2-yl)pyridin-3-yl)methanesulfonamide] | 90.9% |
| CC(Nc1nc(-c2cncc(S(N)(=O)=O)c2)nn2ccc(-c3ccccc3)c12)c1ccc(F)cc1 (stereo not drawn) [Example 76, 5-(4-(1-(4-fluorophenyl)ethylamino)-5-phenylpyrrolo[1,2-f] [1,2,4]triazin-2-yl) pyridine-3-sulfonamide] | 93.8% |
| O=C(O)CC(=O)Nc1cncc(-c2nc(NCc3ccccc3)c3c(-c4ccccc4)ccn3n2)c1 [Example 78, 3-(5-(4-(benzylamino)-5-phenylpyrrolo [1,2-f][1,2,4]triazin-2-yl)pyridin-3-ylamino)-3-oxopropanoic acid] | 22.9% |
| NS(=O)(=O)c1cncc(-c2nc(NCc3c(F)cccc3F)c3c(-c4ccccc4)ccn3n2)c1 [Example 79, 5-(4-(2,6-difluorobenzylamino)-5-phenylpyrrolo [1,2-f][1,2,4]triazin-2-yl)pyridine-3-sulfonamide] | 96% |
| N#Cc1ccc(-c2nc(NCc3ccccc3)c3c(-c4ccccc4)ccn3n2)cn1 [Example 80, 5-(4-(-benzylamino)-5-phenylpyrrolo [1,2-f][1,2,4]triazin-2-yl) picolinonitrile] | 96.9% |
| NC(=O)c1ccc(-c2nc(NCc3ccccc3)c3c(-c4ccccc4)ccn3n2)cn1 [Example 81, 5-(4-(benzylamino)-5-phenylpyrrolo [1,2-f][1,2,4]triazin-2-yl) picolinamide] | 97% |
| O=C(O)c1ccc(-c2nc(NCc3ccccc3)c3c(-c4ccccc4)ccn3n2)cn1 [Example 82, 5-(4-(benzylamino)-5-phenylpyrrolo [1,2-f][1,2,4]triazin-2-yl) picolinic acid] | 17.6% |
| NS(=O)(=O)c1cncc(-c2nc(NC(c3ccccc3)C(F)(F)F)c3c(-c4ccccc4)ccn3n2)c1 (stereo not drawn) [Example 83, 5-(5-phenyl-4-(2,2,2-trifluoro-1-phenylethylamino)pyrrolo [1,2-f][1,2,4]triazin-2-yl)pyridine-3-sulfonamide] | 89.8% |
| O=C(c1cncc(-c2nc(NCc3ccccc3)c3c(-c4ccccc4)ccn3n2)c1)N1CCOCC1 [Example 84, (5-(4-(benzylamino)-5-phenylpyrrolo [1,2-f][1,2,4]triazin-2-yl)pyridin-3-yl)(morpholino) methanone] | 85.9% |
| COCCNC(=O)c1cncc(-c2nc(NCc3ccccc3)c3c(-c4ccccc4)ccn3n2)c1 [Example 85, 5-(4-(benzylamino)-5-phenylpyrrolo [1,2-f][1,2,4]triazin-2-yl)-N-(2-methoxyethyl) nicotinamide] | 96.3% |
| N#Cc1cncc(-c2nc(NC(c3ccccc3)C(F)(F)F)c3c(-c4ccccc4)ccn3n2)c1 (stereo not drawn) [Example 88, 5-(5-phenyl-4-(-2-,2,2-trifluoro-1-phenylethylamino)pyrrolo [1,2-f][1,2,4]triazin-2-yl)nicotinonitrile] | 27.2% |
| CCOC(=O)CCNC(=O)c1cncc(-c2nc(NCc3ccccc3)c3c(-c4ccccc4)ccn3n2)c1 [Example 89, ethyl 3-(5-(4-(benzylamino)-5-phenylpyrrolo [1,2-f][1,2,4]triazin-2-yl)nicotinamido) propanoate] | 97% |
| CC1(C)OCC(CNC(=O)c2cncc(-c3nc(NCc4ccccc4)c4c(-c5ccccc5)ccn4n3)c2)O1 (stereo not drawn) [Example 90, 5-(4-(benzylamino)-5-phenylpyrrolo [1,2-f][1,2,4]triazin-2-yl)-N-((2,2-dimethyl-1,3-dioxolan-4-yl)methyl)nicotinamide] | 96% |
| CC(=O)NS(=O)(=O)c1cncc(-c2nc(NCc3ccccc3)c3c(-c4ccccc4)ccn3n2)c1 [Example 91, N-(5-(4-(benzylamino)-5-phenylpyrrolo [1,2-f][1,2,4]triazin-2-yl)pyridin-3-ylsulfonyl)acetamide] | 61.7% |

Other lines, results leading:

| inhibition at 0.3 µM | SMILES |
| --- | --- |
| 97.6% | CCOC(=O)CS(=O)(=O)Nc1cccc(-c2nc(NCc3ccccn3)c3c(-c4ccccc4)ccn3n2)c1 [Example 60, ethyl 2-(N-(3-(5-phenyl-4-(pyridin-2-ylmethylamino)pyrrolo[1,2-f][1,2,4]triazin-2-yl)phenyl)sulfamoyl)acetate] |
| 97.9% | CCS(=O)(=O)Nc1cncc(-c2nc(NCc3ccccn3)c3c(-c4ccccc4)ccn3n2)c1 [Example 62, N-(5-(5-phenyl-4-(pyridin-2-ylmethylamino)pyrrolo[1,2-f][1,2,4]triazin-2-yl)pyridin-3-yl)ethanesulfonamide] |
| 97.6% | CC(C)S(=O)(=O)Nc1cncc(-c2nc(NCc3ccccn3)c3c(-c4ccccc4)ccn3n2)c1 [Example 64, N-(5-(5-phenyl-4-(pyridin-2-ylmethylamino)pyrrolo[1,2-f][1,2,4]triazin-2-yl)pyridin-3-yl)propane-2-sulfonamide] |
| 97.7% | c1ccc(-c2ccn3nc(-c4cn[nH]c4)nc(NCc4ccccn4)c23)cc1 [Example 65, 5-phenyl-2-(1H-pyrazol-4-yl)-N-(pyridin-2-ylmethyl) pyrrolo[1,2-f][1,2,4] triazin-4-amine] |
| 89.2% | N#Cc1cccc(-c2nc(NCc3ccccn3)c3c(-c4ccccc4)ccn3n2)c1 [Example 66, 3-(5-phenyl-4-(pyridin-2-ylmethylamino)pyrrolo[1,2-f][1,2,4]triazin-2-yl)benzonitrile] |
| 97.8% | N#Cc1ccc(-c2nc(NCc3ccccn3)c3c(-c4ccccc4)ccn3n2)cc1 [Example 67, 4-(5-phenyl-4-(pyridin-2-ylmethylamino)pyrrolo [1,2-f][1,2,4]triazin-2-yl)benzonitrile] |
| 89.1% | Cc1ncc(-c2nc(NCc3ccccn3)c3c(-c4ccccc4)ccn3n2)cc1N [Example 71, 2-(5-amino-6-methylpyridin-3-yl)-5-phenyl-N-(pyridin-2-ylmethyl)pyrrolo[1,2-f] [1,2,4]triazin-4-amine] |
| 95.5% | CC(C)OC(=O)Nc1cncc(-c2nc(NCc3ccccn3)c3c(-c4ccccc4)ccn3n2)c1 [Example 72, isopropyl 5-(5-phenyl-4-(pyridin-2-ylmethylamino)pyrrolo[1,2-f][1,2,4]triazin-2-yl)pyridin-3-ylcarbamate] |
| 86.3% | COC(=O)c1cccc(-c2nc(NCc3ccccn3)c3c(-c4ccccc4)ccn3n2)c1 [Example 86, methyl 3-(5-phenyl-4-(pyridin-2-ylmethylamino)pyrrolo[1,2-f][1,2,4]triazin-2-yl)benzoate] |
| 91% | O=C(O)c1cccc(-c2nc(NCc3ccccn3)c3c(-c4ccccc4)ccn3n2)c1 [Example 87, 3-(5-phenyl-4-(pyridin-2-ylmethylamino)pyrrolo [1,2-f][1,2,4]triazin-2-yl)benzoic acid] |
| 88.2% | N#Cc1cc(-c2nc(NCc3ccccc3)c3c(-c4ccccc4)ccn3n2)ccn1 [Example 92, 4-(4-(benzylamino)-5-phenylpyrrolo [1,2-f][1,2,4]triazin-2-yl) picolinonitrile] |
